We go through 15 compounds from BindingDB's records for doi:10.1038/sj.bjp.0703341 (Friedrich-Schiller-University Jena, 2000).

“And” between values parts separate entries of the source, which are not always exact repeats. Identical values can stand only once.

As a reminder, the Ki is the dissociation constant of the complex between target and ligand, obtained from inhibition or displacement.

Assay [1] concerns the target T1, 5-hydroxytryptamine receptor 2C (Sus scrofa, UniProt G7ZKZ7).
T1 sequence (G7ZKZ7 whole entry): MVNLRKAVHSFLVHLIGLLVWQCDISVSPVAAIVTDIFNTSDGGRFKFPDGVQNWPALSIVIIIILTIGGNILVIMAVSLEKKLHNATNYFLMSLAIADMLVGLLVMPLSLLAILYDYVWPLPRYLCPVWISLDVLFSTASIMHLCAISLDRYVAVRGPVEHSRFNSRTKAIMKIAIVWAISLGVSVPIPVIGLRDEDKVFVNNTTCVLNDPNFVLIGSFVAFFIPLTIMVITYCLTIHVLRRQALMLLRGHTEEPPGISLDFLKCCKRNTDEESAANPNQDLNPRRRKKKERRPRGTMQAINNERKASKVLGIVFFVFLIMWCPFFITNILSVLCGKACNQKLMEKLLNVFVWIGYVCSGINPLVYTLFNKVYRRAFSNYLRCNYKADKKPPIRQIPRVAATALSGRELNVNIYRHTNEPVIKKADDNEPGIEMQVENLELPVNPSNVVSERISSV

Assay [2] addresses 5-hydroxytryptamine receptor 7 (Rattus norvegicus, UniProt P32305).
In assay [3] the target is 5-hydroxytryptamine receptor 6 (Rattus norvegicus, UniProt P31388).
5-hydroxytryptamine receptor 6, sequence (P31388 whole entry): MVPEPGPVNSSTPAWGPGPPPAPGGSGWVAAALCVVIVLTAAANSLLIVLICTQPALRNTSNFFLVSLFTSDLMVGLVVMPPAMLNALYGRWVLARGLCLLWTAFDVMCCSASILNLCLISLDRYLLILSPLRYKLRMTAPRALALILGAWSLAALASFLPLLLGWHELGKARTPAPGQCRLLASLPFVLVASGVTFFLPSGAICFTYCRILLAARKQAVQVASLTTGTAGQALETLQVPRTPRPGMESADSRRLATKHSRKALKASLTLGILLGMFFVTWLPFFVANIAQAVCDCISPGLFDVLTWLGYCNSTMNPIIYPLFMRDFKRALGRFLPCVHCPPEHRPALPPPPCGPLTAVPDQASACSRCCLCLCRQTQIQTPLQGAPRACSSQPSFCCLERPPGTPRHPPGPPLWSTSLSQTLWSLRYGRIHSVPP
In assay [4] the target is 5-hydroxytryptamine receptor 2B (Rattus norvegicus, UniProt P30994).
5-hydroxytryptamine receptor 2B, sequence (P30994 whole entry): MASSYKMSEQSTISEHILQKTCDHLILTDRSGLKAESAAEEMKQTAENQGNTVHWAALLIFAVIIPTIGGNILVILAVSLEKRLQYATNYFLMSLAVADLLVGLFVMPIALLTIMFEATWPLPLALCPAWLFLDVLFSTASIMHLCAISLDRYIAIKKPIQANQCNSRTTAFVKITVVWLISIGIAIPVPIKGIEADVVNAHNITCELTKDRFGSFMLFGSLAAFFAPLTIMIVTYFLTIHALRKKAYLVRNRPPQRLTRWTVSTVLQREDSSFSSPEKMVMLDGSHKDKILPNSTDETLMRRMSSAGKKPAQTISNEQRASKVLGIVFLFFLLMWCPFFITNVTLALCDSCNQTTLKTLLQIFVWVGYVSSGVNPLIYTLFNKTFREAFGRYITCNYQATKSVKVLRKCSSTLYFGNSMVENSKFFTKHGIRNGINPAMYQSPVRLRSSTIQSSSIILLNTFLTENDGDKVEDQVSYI

5-hydroxytryptamine receptor 7, sequence (P32305 whole entry): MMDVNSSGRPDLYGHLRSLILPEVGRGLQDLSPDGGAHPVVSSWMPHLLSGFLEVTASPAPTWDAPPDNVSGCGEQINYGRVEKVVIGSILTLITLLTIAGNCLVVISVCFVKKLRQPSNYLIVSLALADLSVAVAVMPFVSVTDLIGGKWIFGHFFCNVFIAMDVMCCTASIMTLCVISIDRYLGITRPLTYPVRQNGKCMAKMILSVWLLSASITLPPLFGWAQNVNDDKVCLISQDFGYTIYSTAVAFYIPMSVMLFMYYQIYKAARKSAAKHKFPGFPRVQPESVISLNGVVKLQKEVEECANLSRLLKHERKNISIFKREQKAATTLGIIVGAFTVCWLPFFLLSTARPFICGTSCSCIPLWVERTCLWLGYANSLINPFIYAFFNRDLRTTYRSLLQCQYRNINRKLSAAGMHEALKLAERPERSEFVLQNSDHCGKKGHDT

On to `CN1C[C@@H](NS(=O)(=O)N(C)C)C[C@@H]2c3cccc4c3c(cn4C)C[C@H]21` [MESULERGINE], for which the values for the Ki in assay [1], in assay [2] and in assay [3] were 1.58 nM, 6.31 nM and 1580 nM, respectively.
For `O=C(CCCN1CCC2(CC1)C(=O)NCN2c1ccccc1)c1ccc(F)cc1` [8-[4-(4-fluorophenyl)-4-oxidanylidene-butyl]-1-phenyl-1,3,8-triazaspiro[4.5]decan-4-one], the inhibition constant (Ki) in assay [1] stood at 1260 nM.
In assay [1], `CN1CCC(=C2c3ccccc3CCc3sccc32)CC1` [NSC_27400] came in with a Ki of 7.94 nM. Against the preceding compound, the Ki is about 160-fold lower.
The same measure, in the same setting: next, `CSc1ccc2c(c1)C(N1CCN(C)CC1)Cc1ccccc1S2` (stereo not drawn) [methanesulfonic acid;1-methyl-4-(3-methylsulfanyl-5,6-dihydrobenzo[b][1]benzothiepin-5-yl)piperazine]: 25.1 nM.
Regarding `Cc1nc2sccn2c(=O)c1CCN1CCC(=C(c2ccc(F)cc2)c2ccc(F)cc2)CC1`, the inhibition constant Ki is 2.51 nM in assay [1] and 39.8 nM in assay [3].
Regarding `CN(C)CC/C=C1\c2ccccc2Sc2ccc(Cl)cc21`, the inhibitory constant (Ki) worked out at 5.01 nM in assay [2] and 3.16 nM in assay [3].
`CN1C[C@H](CNC(=O)OCc2ccccc2)C[C@@H]2c3cccc4c3c(cn4C)C[C@H]21` [METERGOLINE]: the inhibition constant (Ki) in assay [1] was determined as 0.63 nM; in assay [3], 31.6 nM.
As for `COC(=O)[C@@H]1[C@H]2C[C@H]3c4[nH]c5ccccc5c4CCN3C[C@@H]2CC[C@@H]1O` [yohimbic acid methyl ester], the inhibition constant (Ki) is 1580 nM and > 10000 nM in assay [1]; 39.8 nM in assay [4].
In turn, `Clc1ccc2c(c1)C(N1CCNCC1)=Nc1ccccc1O2` yielded an inhibition constant (Ki) in assay [3] of 6.31 nM.
Consider `CN(C)CCC=C1c2ccccc2CCc2ccccc21`, for which the Ki in assay [2] turned out to be 126 nM; in assay [3] it was 63.1 nM.
Regarding `CC(O)C(C)OC(=O)C1CC2c3cccc4c3c(cn4C(C)C)CC2N(C)C1` (stereo not drawn) [CAS_60634-51-7], the inhibition constant Ki stood at 7.94 nM in assay [1] and 6.31 nM in assay [4].
For `CN1CCN(C2=Nc3ccccc3Oc3ccc(Cl)cc32)CC1` [13-chloro-10-(4-methylpiperazin-1-yl)-2-oxa-9-azatricyclo[9.4.0.0^{3,8}]pentadeca-1(11),3,5,7,9,12,14-heptaene], the Ki in assay [2] was 39.8 nM; in assay [3], 15.9 nM.
Take `CC[C@@H](CO)NC(=O)[C@@H]1C=C2c3cccc4c3c(cn4C)C[C@H]2N(C)C1`: the Ki in assay [1] was determined as 2.51 nM; in assay [3] it was 398 nM.
Consider `O=C(c1ccc(F)cc1)C1CCN(CCn2c(=O)[nH]c3ccccc3c2=O)CC1` [3-(2-{4-[(4-fluorophenyl)carbonyl]piperidin-1-yl}ethyl)-1,2,3,4-tetrahydroquinazoline-2,4-dione], for which the inhibition constant Ki was 100 nM in assay [1], over 10000 nM in assay [3] and 3160 nM in assay [4].
Take `OCCN1CCN(CCCN2c3ccccc3Sc3ccc(Cl)cc32)CC1` [4-[3-(2-chlorophenothiazin-10-yl)propyl]-1-piperazineethanol]: the inhibitory constant (Ki) in assay [2] worked out at 25.1 nM; in assay [3], 15.9 nM.
